# Source: patent US20230293521A1, “METHODS FOR SCREENING NOVEL CORONAVIRUS ANTIVIRALS AND METHODS OF USING ANTIVIRALS FOR THE TREATMENT OF CORONAVIRUS INFECTIONS” (priority 2020, published 2023)
# Like-named read-outs stand apart in the source and are kept apart here.
# Columns and labels:
# SARS-CoV-2 [1] = test: microbe, parasite or virus in culture; type: cell-based; settings: for IC50: Calu-3, pre-treated 1 hour, MOI 0.01, supernatants at 48 hpi
# [2] = test system: SARS-CoV-2 replication centers; test: Confocal immunofluorescence of SARS-CoV-2 N and dsRNA replication centers in Calu-3 cells; type: cell-based; settings: for distribution of SARS-CoV-2 N and dsRNA (replication center formation): Calu-3, pre-treated, MOI 3, fixed at 24 h.p.i.; for IC90: read-out: approximate IC90 (concentration used for pre-treatment)
# [3] = test system: SARS-CoV-2 genomic RNA, subgenomic N RNA and NSP14 RNA; type: cell-based; settings: for viral RNA levels: Calu-3, both MOI 0.01 and 1; for reduction in RNA synthesis compared with reduction in viral titers: Calu-3, 24 hpi
# SARS-CoV-2 [4] = test: microbe, parasite or virus in culture; type: cell-based
# SARS-CoV-2 [5] = test: Time of addition studies, impedance assay in VeroE6 cells; type: cell-based; settings: for inhibition of SARS-CoV-2 replication, single treatment 1 hour prior to infection, compound removed prior to infection: VPS34 inhibitors at 5 µM; for inhibition of SARS-CoV-2 replication, compound added up to 4 hpi: dosing at 2 hpi or 4 hpi, compound maintained
# VPS34 = type: cell-based; settings: Huh7, 24 hours treatment; VPS34-IN1 2 µM, PIK-III, SAR405, Compound 19 5 µM, Orlistat 200 µM
# Vero E6 cells = settings: for cytotoxicity (rapid decrease in resistance between 1 and 20 hpi): at 50 µM and 16.67 µM
# [6] = Severe acute respiratory syndrome coronavirus 2, Calu-3
compound,measurement,setting,value
CCCCCCCCCCCCCCC(Br)C(=O)O (stereo not drawn) [2-bromopalmitate],concentrations at which infectious virus production was inhibited,"SARS-CoV-2 [1]; Calu-3, MOI 0.01, 48 hpi",greater than 10 µM
same,IC50,SARS-CoV-2 [1],23 µM
same,distribution of SARS-CoV-2 N and dsRNA (replication center formation),[2],fewer but larger foci positive for both markers
same,viral RNA levels,[3],reduced RNA levels
O=C(Nc1ccccc1)Nc1ccc(-c2ccc(C(=O)[C@@H]3CCC[C@H]3C(=O)O)cc2)cc1 [A922500],IC50,SARS-CoV-2 [1],4.02 µM
same,distribution of SARS-CoV-2 N and dsRNA (replication center formation),[2],loss of these distinct puncta and dispersion of dsRNA and SARS-CoV-2 N
same,reduction in RNA synthesis compared with reduction in viral titers,[3],significantly less substantial than the reduction in viral titers
Cc1nc(NC(=O)N2CCC[C@H]2C(N)=O)sc1-c1ccnc(C(C)(C)C(F)(F)F)c1 [BYL719],decrease in viral titers,SARS-CoV-2 [4],1 log
same,inhibition of SARS-CoV-2 replication,SARS-CoV-2 [4],little inhibition was detected
"C=C1C(=O)O[C@H](CCCCCCCC)[C@H]1C(=O)O [C75, tetrahydro-4-methylene-2R-octyl-5-oxo-3S-furancarboxylic acid]",IC50,SARS-CoV-2 [1],22.8 µM
CCOC(=O)[C@@]1(CCCCCCOc2ccc(Cl)cc2)CO1 [Etomoxir],inhibition of SARS-CoV-2,"SARS-CoV-2 [1]; Calu-3, MOI 0.01, 48 hpi",Neither compound showed any inhibition
CCCCCCCCCCC[C@@H](C[C@@H]1OC(=O)[C@H]1CCCCCC)OC(=O)[C@H](CC(C)C)NC=O [Orlistat],"inhibition of SARS-CoV-2 replication, single treatment 1 hour prior to infection, compound removed prior to infection",SARS-CoV-2 [5],minimal efficacy
same,"inhibition of SARS-CoV-2 replication, compound added up to 4 hpi",SARS-CoV-2 [5],remained inhibitory
same,IC50,SARS-CoV-2 [4]; [6],21.2 µM
same,effect on GFP-2xFYVE localization to endosomes,VPS34,did not affect GFP-2xFYVE localization
same,distribution of SARS-CoV-2 N and dsRNA (replication center formation),[2],loss of these distinct puncta and dispersion of dsRNA and SARS-CoV-2 N
same,IC90,[2]; [6],~500 µM
same,viral RNA levels,[3],reduced RNA levels
same,early cytotoxic effects (1-20 hours post-treatment),Vero E6 cells,neither Orlistat nor Triacsin C induced early cytotoxic effects
Nc1ncc(-c2ccnc(Nc3ccncc3)n2)c(CC2CC2)n1 [PIK-III],"inhibition of SARS-CoV-2 replication, single treatment 1 hour prior to infection, compound removed prior to infection",SARS-CoV-2 [5],inhibited SARS-CoV-2 replication
same,"inhibition of SARS-CoV-2 replication, compound added up to 4 hpi",SARS-CoV-2 [5],inhibition could be observed
same,IC50,SARS-CoV-2 [4]; [6],0.12 µM
same,IC90,[2]; [6],~5 µM
same,toxicity at the remaining concentrations,Vero E6 cells,no toxicity was observed
same,cytotoxicity (rapid decrease in resistance between 1 and 20 hpi),Vero E6 cells; Vero E6,induced rapid cytotoxicity
C[C@@H]1COCCN1c1cc(=O)n2c(n1)N(Cc1cncc(Cl)c1)[C@H](C(F)(F)F)CC2 [SAR405],IC50,SARS-CoV-2 [4]; [6],0.376 µM
"CCCCCCCCCCCCCCOc1ccc(C(=O)O)o1 [TOFA, 5-(Tetradecyloxy)-2-furoic acid]",IC50,SARS-CoV-2 [1]; Severe acute respiratory syndrome coronavirus 2,1.34 µM
same,distribution of SARS-CoV-2 N and dsRNA (replication center formation),[2],loss of these distinct puncta and dispersion of dsRNA and SARS-CoV-2 N
same,reduction in RNA synthesis compared with reduction in viral titers,[3],significantly less substantial than the reduction in viral titers
CCC/C=C/C/C=C/C=C/C=N/NN=O [Triacsin C],"inhibition of SARS-CoV-2 replication, single treatment 1 hour prior to infection, compound removed prior to infection",SARS-CoV-2 [5],minimal efficacy
same,"inhibition of SARS-CoV-2 replication, compound added up to 4 hpi",SARS-CoV-2 [5],remained inhibitory
same,IC50,SARS-CoV-2 [4],0.04 µM
same,distribution of SARS-CoV-2 N and dsRNA (replication center formation),[2],fewer but larger foci positive for both markers
same,IC90,[2]; Calu-3,~50 µM
same,viral RNA levels,[3],reduced RNA levels
same,early cytotoxic effects (1-20 hours post-treatment),"Vero E6 cells; even at the highest concentrations of 50 µM and 500 µM, respectively, Vero E6",neither Orlistat nor Triacsin C induced early cytotoxic effects
COc1ccc(CN2CCNCC2)c(OC)c1OC [Trimetazidine],inhibition of SARS-CoV-2,"SARS-CoV-2 [1]; Calu-3, MOI 0.01, 48 hpi",Neither compound showed any inhibition
CC(C)(O)CNc1ncc(-c2ccnc(Nc3ccncc3)n2)c(CC2CC2)n1 [VPS34-IN1],"inhibition of SARS-CoV-2 replication, single treatment 1 hour prior to infection, compound removed prior to infection",SARS-CoV-2 [5],inhibited SARS-CoV-2 replication
same,"inhibition of SARS-CoV-2 replication, compound added up to 4 hpi",SARS-CoV-2 [5],inhibition could be observed
same,IC50,SARS-CoV-2 [4]; [6],0.55 µM
same,distribution of SARS-CoV-2 N and dsRNA (replication center formation),[2],loss of these distinct puncta and dispersion of dsRNA and SARS-CoV-2 N
same,IC90,[2]; [6],~5 µM
same,viral RNA levels,[3],reduced RNA levels
same,toxicity at the remaining concentrations,Vero E6 cells,no toxicity was observed
same,cytotoxicity (rapid decrease in resistance between 1 and 20 hpi),Vero E6 cells; Vero E6,induced rapid cytotoxicity
